{"source": "patent US20210353517A1", "about": "“PROCESS FOR PRODUCING A BIO-BASED SURFACTANT” (University College Dublin, priority 2018, published 2021)", "format_in_all_cases": "physicochemical", "key": {"[1]": {"assay": "Drop shape analysis (wettability, dynamic contact angle)", "conditions": "solution at its CMC added to 20 μL deionised water drop", "experimental": "The dynamic behaviour of a 20 μL deionised water drop after the addition of an equal volume of surfactant solution at critical micelle concentration was recorded with a video recording system and analysed by a dedicated plug-in (LB-ADSA) of ImageJ® software for image analysis. The sessile drop is positioned on a smooth and plan surface of a borosilicate glass slide without any microdefects. A contour recognition is initially carried out based on a grey-scale analysis of the image. In the second step, a geometrical model describing the drop shape is fitted to the contour. The contact angle is the angle between the calculated drop shape function and the sample surface."}, "Foaming stability": {"assay": "Foaming stability", "conditions": "10 s stirring at 1500 rpm, at respective CMC values"}, "[2]": {"assay": "Critical micelle concentration by conductivity assay", "conditions": "conductivity at 25° C., relative to SDS", "experimental": "Critical micelle concentration was estimated by a conductivity assay. In this assay a pen type EC-963 model conductivity meter tester was submerged into a milliQ® grade deionised water solution to have a zero reading of pS/cm. Increasing amounts of different surfactant solutions was added to this milliQ® water solution and the conductivity was measured at 25° C. The increasing conductivity is proportional to the surfactant activity. The change of slope in the two linear interpolating curves is an indication of the critical micelle concentration (CMC) point for the specific surfactant (Al-Soufi et al 2012)."}, "[3]": {"assay": "Surface tension analysis (DuNOUY ring tensiometer)", "conditions": "at parity of concentration (w/v), 25° C., relative to SDS", "experimental": "Surface tension analysis was performed with an interfacial tensiometer Cenco DuNOUY® 70545 model. In this methodology, a ring-shaped steel tool is pulled up from a surfactant solution and the corresponding millinewton per meter (mN/m) of force applied to break the surface tension is indicated. Increasingly diluted surfactant solutions are measured until the reference value of deionised water is reached (72 mN/m). The measurements were performed at 25° C."}}, "data": [{"smiles": "CCCCCCCCCC(CCOS(=O)(=O)O)OS(=O)(=O)O", "note": "(stereo not drawn) [dodecyl (1,3) disulfate]", "values": [{"measurement": "wettability (speed at which the contact angle of a water drop is broken) versus SDS", "setting": "[1]", "result": "higher that the SDS solution"}, {"measurement": "foam decrease in volume over time", "setting": "Foaming stability", "result": 2, "unit": "fold"}, {"measurement": "foam decrease slower than SDS", "setting": "Foaming stability", "result": 3, "unit": "times"}, {"measurement": "foaming volume higher than SDS", "setting": "Foaming stability", "result": 1.5, "unit": "fold"}, {"measurement": "outperformance of SDS at the specific CMC concentration (change of slope point of conductivity)", "setting": "[2]", "result": 3.5, "unit": "fold"}, {"measurement": "surface tension value better than sodium dodecyl sulfate (SDS)", "setting": "[3]", "result": 4, "unit": "fold"}]}]}
